We go through one compound from PMC8880564, “Design, Synthesis, and Biological Evaluation of a Novel VEGFR-2 Inhibitor Based on a 1,2,5-Oxadiazole-2-Oxide Scaffold with MAPK Signaling Pathway Inhibition” (Pharmaceuticals, 2022).

Series [1] deals with HepG2 cells. Briefly: Apoptosis analysis, Annexin-V/PI flow cytometry. The settings on record: HepG2, 5.5 or 11 µM, 24 h. Format: cell-based, human. How it is done:
The mechanism of action of 12b was investigated by evaluating its effectiveness in modulating the cell cycle and induction of apoptosis.
Briefly, HepG2 cells (10^6 cells/mL) were treated either with 12b (5.5 or 11 µM) or with DMSO for 24 h, and then were collected after trypsinization and washed twice with 1× PBS. The induction of apoptosis was analyzed by staining cells with PE-Annexin-V [85] in the presence of PI and analyzed using the BD FACS Calibur Flow cytometer.

The subject of series [2] is HepG2 cells. Briefly: Wound-healing assay. The settings on record: HepG2, serum-free media, 24 h, vs DMSO-treated cells. It is filed as cell-based, human. As for the experimental part:
A wound-healing assay is a simple and economical assay used to investigate the anti-metastatic activity of compounds. Cells were treated with compound 12b in serum-free media for 24 h. After that, the cells were fixed with ice-cold methanol and air-dried, then stained with 0.5% crystal violet.

The subject of series [3] is pERK. Briefly: Western blot analysis in HepG2 cells. It is filed as cell-based, human. The conditions noted are these: HepG2, 48 h. How it is done: (§1) The mitogen-activated protein kinase (MAPK) pathway is considered to be a key player in the gene expression of survival, proliferative, and anti-apoptotic proteins. Aberrant dysregulation in the MAPK pathway activity has been linked to the overall poor prognosis in various cancers. […] Additionally, compound 12b was further tested against p38, MKK3, and JNK using ELISA assay protocols at a concentration of 11 µM. […] The overexpression of JNK might have contributed to the NO released from 12b and reactive oxygen species (ROS). In summary, the novel anticancer lead compound 12b is worthy of further investigation and activity improvement.
(§2) The cells were seeded (2.5 × 10^5 cells/mL) and treated as described above. After 48 h of incubation with compound 12b, cells were lysed by RIPA buffer containing 1x protease and phosphatase inhibitor cocktail (Thermo Scientific™, Waltham, MA, USA). The supernatant was collected after centrifugation at 4 °C and the Pierce BCA Protein Assay Kit (Thermo Scientific™, 23225, Waltham, MA, USA) was used for protein concentration detection. Proteins were then separated using SDS-PAGE at 100 V for 45 min. After that, the proteins were transferred to a nitrocellulose membrane. The membrane was subjected to a suitable primary antibody overnight. Then, an appropriate HRP-conjugated secondary antibody was used. GAPDH was used as a loading control. The membrane was developed using WesternBright® ECL (Advansta Inc., K-12045-D20, San Jose, CA, USA), and the signal was detected using ChemiDoc XRS^+ (1708265, Bio-Rad Laboratories, Hercules, CA, USA).

Series [4] relates to MMP-9. The experiment in a line: Western blot analysis in HepG2 cells. Format: cell-based, human. The conditions noted are these: HepG2, 48 h. How it is done:
as §1, §2

Series [5] concerns p21. Briefly: Western blot analysis in HepG2 cells. It is filed as cell-based, human. The conditions noted are these: HepG2, 48 h. As for the experimental part: as §1, §2
(In western blotting, separated proteins are transferred to a membrane and probed.)

In series [6] the test system is p53. The experiment in a line: Western blot analysis in HepG2 cells. The conditions noted are these: HepG2, 48 h. Format: cell-based, human. How it is done:
as §1, §2

The subject of series [7] is total ERK. The experiment in a line: Western blot analysis in HepG2 cells. Format: cell-based, human. The conditions noted are these: HepG2, 48 h. As for the experimental part:
as §1, §2

Series [8] concerns p27. The experiment in a line: Western blot analysis in HepG2 cells. It is filed as cell-based, human. The conditions noted are these: HepG2, 48 h. As for the experimental part: as §1, §2
The subject of series [9] is p38. The experiment in a line: ELISA assay in HepG-2 cells. Format: cell-based, human. The conditions noted are these: HepG-2, 11 µM. As for the experimental part:
as §1
(§3) The p38, MKK3, and JNK assays were performed according to the manufacturer’s ELISA assay protocols. Briefly, a 96-well plate was seeded with a cell density of 10,000–40,000 cells/well. Then, 50 µL of compound 12b or control (DMSO) was added to appropriate wells in triplicate. Following this, 50 µL of the antibody cocktail (in case of p38; Cat. No. ab221012, Abcam (Waltham, MA, USA) and MKK3; Cat. No. PEL-MKK3-S189-T, RayBiotech, Peachtree Corners, GA, USA) was added to each well. The plate was then sealed and incubated for 1–2.5 h at room temperature with gentle shaking. Each well was washed with 1X Wash Buffer PT (4 × 350 µL), and then the plate was inverted and tapped gently against clean paper towels to remove excess liquid. In case of JNK (Cat. No. ab176662, Abcam, Waltham, MA, USA), this washing step was applied before and after adding 1X rabbit […] antibody, then 100 µL of HRP-conjugated anti-rabbit IgG solution was added and the plate was incubated for 1 h at room temperature with gentle shaking followed by washing (4 × 350 µL). After that, 100 µL of TMB Substrate was added to each well and incubated for 15–30 min in the dark with gentle shaking. Finally, 100 µL of Stop Solution was added to each well and the plate was shaken for 1 min to mix well. The OD was recorded at 450 nm.

Series [10] concerns MKK3. Briefly: ELISA assay in HepG-2 cells. It is filed as cell-based, human. The settings on record: HepG-2, 11 µM. As for the experimental part: as §1, §3
Series [11] deals with JNK. Briefly: ELISA assay in HepG-2 cells. It is filed as cell-based, human. The settings on record: HepG-2, 11 µM. How it is done:
as §1, §3

Series [12] relates to normal human skin fibroblast cells (HSF). Briefly: Selectivity towards cancer cells, normal cells by MTT. It is filed as cell-based. The settings on record: at a concentration as high as 50 µM, 48 h. As for the experimental part: Furthermore, the selectivity index (SI) of compound 12b towards the various cancer cell lines was evaluated by detecting the required concentration to kill 50% of normal human skin fibroblast cells (HSF).
According to the procedures of Bézivin et al. (with minor modifications), the selectivity of compound 12b against cancer cell lines was evaluated by seeding human skin fibroblast cells (HSF) at 5 × 10^4 cells/mL in a 96-well plate and incubating them overnight at 37 °C and 5% CO2. On the second day, serial dilution of the compound 12b was added. After 48 h of incubation, the viability of HSF cells was determined by MTT assay as mentioned above and the selectivity index (SI) was calculated according to Equation (1):
Equation (1) Calculation of selectivity index. (1) SI=IC50 normal cells/IC50 cancer cell

As for `[O-][n+]1onc(-c2ccccc2)c1CNc1ccc(Nc2nc(C(F)(F)F)nc3c2cnn3-c2ccc(Br)cc2)cc1` [12b, 3-(((4-((1-(4-bromophenyl)-6-(trifluoromethyl)-1H-pyrazolo[3,4-d]pyrimidin-4-yl)amino)phenyl)amino)methyl)-4-phenyl-1,2,5-oxadiazole 2-oxide], the induction of apoptosis result in series [1] was “induction of apoptotic pathways”. Also, the “rate of wound healing” value in series [2] is on record as “decreased the rate of wound healing”. Moreover, the “level of phosphorylated ERK” value in series [3] is recorded as “decreased the level”. Besides, the “expression of metalloproteinase MMP-9” value in series [4] is “downregulation”. Also, the “expression of p21” value in series [5] is reported as “over-expression”. The “expression of p53” value in [6] is “slight increase in the expression”. The “level of total ERK” value in [7] is listed as “decreased the level”. Besides, the “expression of p27” value in series [8] is listed as “over-expression”. For the same compound, in series [9], the “relative expression of p38” value is recorded as “low expression”. The “relative expression of MKK3” value in [10] is “low expression”. Further, the “relative expression of JNK” value in [11] is “overexpressed”. In series [12], the “morphological changes in HSF cells” value is recorded as “did not cause any morphological changes”.
